Test results as given in patent US5932555A (priority 1997, dated 1999).
Values after ≈ are worked out from the molar mass of the structure shown. Where two headings read alike, the source gives them in different places.

How the values were obtained:
[1] = system: ICR mice; test: Acute toxicity test
[2] = Acute toxicity test; details: mouse, in vivo, iv
[3] = Repeated administration toxicity test (intraperitoneal); assay type: in vivo, mouse (CDF1); details: mouse, in vivo, ip, read-out: Fatality rate
Procedure: (§1) As the comparative control, test solutions of adriamycin were prepared in the same manner. […] The number with time of survived animals after administration and the average body weights on Days 0, 5, and 10 were determined.

[4] = system: CDF1 mice; test: as above; assay type: in vivo, mouse (CDF1); details: for Body weight, Day 0: Day 0 (baseline)
Procedure: as §1

[5] = system: P388/ADR; test: Mouse in vivo antitumor test, P388/ADR transplanted; details: for T/C / average body weight after 10 days / average survival days: P388/ADR
Procedure: 2×10^5 cells of P388 or P388/ADR were inoculated intraperitoneally into each of CDF1 mice (male, each weighing 20 g, 10 animals/group), and from the next day, the test solution was administered at 10, 5, and 1 mg/kg body weight/day respectively by intraperitoneal injection of 200 μl sample at each concentration once a day for 10 successive days. The numbers with time of mice which survived after administration was counted and the average survival days and T/C (survival days of treated mice/survival days of control mice) were calculated. The average body weights after 10 days were also measured.

[6] = system: P388; test: Cytotoxicity test on cultured tumor cell line P388 (MTT, 72 h); assay type: cell-based
Procedure: Cultured tumor cell lines P388 and P388/ADR were suspended in RPMI1640 medium containing 10% heat inactivated fetal calf serum (FCS) and 20 μM 2-mercaptoethanol whereby a cell suspension (5×10^4 cells/ml) was prepared.
72 hours thereafter, cell growth was measured by a calorimetric assay method using 3-(4,5-dimethyl-2-thiazolyl)-2,5-diphenyl-2H-tetrazolium bromide (MTT) as follows: 20 μl of 2 mg/ml MTT solution was added to each well and the cells were incubated for 4 hours at 37° C. Thereafter, 50 μl of 50% dimethylformamide solution containing 20% sodium dodecyl sulfate was added to each well and allowed to stand, so that the formed violet formazan crystal was dissolved, and its absorbance at 570 nm was measured in a microplate absorbance photometer (Immunoreader) and used as an indicator of the growth.
Degree of inhibition=[1-(absorbance in presence of sample)/(absorbance in
absence of sample)]×100 (1)

[7] = Solubility; assay type: physicochemical
[8] = system: cytotoxic T cell induction by allogenic immunization; test: In vivo mouse cytotoxic T cell induction test; set-up: species or system mouse (C57BL/6)
Procedure: A 8-week-old, female C57BL/6 mouse (H-2^b) was immunized intraperitoneally with 0.2 ml of cultured cell line P815 suspension (5×10^7 cells/ml PBS) derived from DBA/2 (H-2^d), and 0.2 to 0.3 ml of 0.1 mg/ml sample was administered intraperitoneally at a dosage of 1 mg/kg body weight/day for 5 days including the day of immunization.
To measure cytotoxic T cell activity, 100 μl of the effector cell suspension and 100 μl of the target cell suspension were put to each well on a 96-well round-bottomed microplate and incubated at 37° C. for 4 hours, and the cells were centrifuged and the amount of ^51 Cr released into the supernatant was measured and the cytotoxic T cell activity was calculated using the following equation 2:
Cytotoxic T cell activity=A/B×100 (2)
A: (radioactivity of effector cells+target cells)-(radioactivity of only target cells)
B: (radioactivity of target cells treated with 0.1 N HCl)-(radioactivity of only target cells)
The cytotoxic T cell activity was expressed in terms of lytic unit (LU). One LU is defined as the number of effector cells required for 20% lysis of 2×10^4 target cells, and the result is shown in LU per spleen.
Similarly, the mouse was immunized and then administered 0.2 to 0.3 ml of 1 mg/ml of the sample (i.e. at a dosage of 10 mg/kg body weight/day) by intraperitoneal administration for 5 days and the cytotoxic activity was determined.

Structure (SMILES): COC(CC1C(C)=CCC2C1(C)CCC1C(C)(C)C(O)C(OC3OC(C)C(OC(=O)c4cccc(O)c4)C(OC4OC(CO)C(O)C(O)C4NC(C)=O)C3O)CC12C)C(N)C(=O)O (stereo not drawn) [0406TP-1]
- survival ([1]; 100 mg/kg i.v., one month observation): all survived
- toxicity and safety ([1]; acute toxicity test, in words): low toxicity
- LD50 at 730 h [2]: > 100 mg/kg
- mortality ([3]; 1 mg/kg/day i.p. × 10 days): 0%
- mortality ([3]; 5 mg/kg/day i.p. × 10 days): 0%
- mortality ([3]; 10 mg/kg/day i.p. × 10 days): 0%
- Body weight, Day 0 ([4]; 1 mg/kg/day i.p. group): 22.0 g
- Body weight, Day 5 ([4]; 1 mg/kg/day i.p.): 23.1 g
- Body weight, Day 10 ([4]; 1 mg/kg/day i.p.): 25.0 g
- Body weight, Day 0 ([4]; 5 mg/kg/day i.p. group): 21.8 g
- Body weight, Day 5 ([4]; 5 mg/kg/day i.p.): 23.7 g
- Body weight, Day 10 ([4]; 5 mg/kg/day i.p.): 25.5 g
- Body weight, Day 0 ([4]; 10 mg/kg/day i.p. group): 21.4 g
- Body weight, Day 5 ([4]; 10 mg/kg/day i.p.): 23.6 g
- Body weight, Day 10 ([4]; 10 mg/kg/day i.p.): 25.4 g
- T/C ([5]; 1 mg/kg/day i.p. × 10 days): 130%
- average body weight after 10 days ([5]; 1 mg/kg/day i.p. × 10 days): 26.2 g
- average survival days ([5]; 1 mg/kg/day i.p. × 10 days): 14.4 days
- T/C ([5]; 5 mg/kg/day i.p. × 10 days): 133%
- average body weight after 10 days ([5]; 5 mg/kg/day i.p. × 10 days): 27.3 g
- average survival days ([5]; 5 mg/kg/day i.p. × 10 days): 14.8 days
- T/C ([5]; 10 mg/kg/day i.p. × 10 days): 165%
- average body weight after 10 days ([5]; 10 mg/kg/day i.p. × 10 days): 26.4 g
- average survival days ([5]; 10 mg/kg/day i.p. × 10 days): 18.3 days
- therapeutic effect ([5]; P388/ADR-transplanted mice): significant therapeutic effect
- IC50 ([6]; Mus musculus, P388, 72 h, MTT, read-out: IC50 (growth inhibition)): 0.65 µg/mL (≈ 0.728 µM)
- cytotoxicity (antitumor activity) on cultured tumor cells ([6]; in words): strong cytotoxicity
- Solubility ([7]; acetone): Insoluble
- Solubility ([7]; chloroform): Insoluble
- Solubility ([7]; ethanol): Soluble
- Solubility ([7]; ether): Insoluble
- Solubility ([7]; ethyl acetate): Insoluble
- Solubility ([7]; methanol): Soluble
- Solubility ([7]; water): Soluble
- Cytotoxic T cell activity ([8]; 1.0 mg/kg/day × 5 days i.p.): 350 LU/spleen
- Cytotoxic T cell activity inhibition ([8]; 1.0 mg/kg/day × 5 days i.p.): 12%
- Cytotoxic T cell activity ([8]; 10 mg/kg/day × 5 days i.p.): 285 LU/spleen
- Cytotoxic T cell activity inhibition ([8]; 10 mg/kg/day × 5 days i.p.): 38%
- inhibition of induction of cytotoxic T cells in spleen cells ([8]; allogenic-immunized mouse, intraperitoneal, in words): inhibit induction of cytotoxic T cells
